Source: US9238795B2, “Populations of smooth muscle cells of specific embryonic lineages” (Cambridge Enterprise Limited, priority 2011, dated 2016)
Entries after “also recorded” stand apart in the source; their conditions may differ.

Columns and labels:
Assay type in all cases: cell-based, human
hESCs = experiment: QPCR analysis of mesoderm subtype markers in differentiating hESCs; conditions: for Expression of the lateral plate marker KDR: in the presence of activin A (10 ng/ml), BMP4 0 to 100 ng/ml
Description: Human embryonic stem cells (hESCs) were cultured in chemically defined medium (CDM) with activin A (10 ng/mL) and FGF2 (20 ng/mL) to maintain pluripotency (Vallier et al, 2005).
An efficient 36 h protocol to differentiate hESCs into early mesoderm was named FlyB (F, FGF2 at 20 ng/ml; Ly, LY294002 at 10 μM and B, BMP4 at 10 ng/ml). Differentiation of paraxial mesoderm can be induced by removal of BMP4 and blockage of the PI3K pathway (1.5 day FLyB+3.5 days FLy, where F is FGF2 at 5-25 ng/ml and Ly is LY294002 at 5-10 μM). Differentiation of lateral plate mesoderm can be induced by increasing the levels of BMP4 and removal of Ly (1.5 day FLyB+3.5 days FB, where F is FGF2 at 5-25 ng/ml and B is BMP4 at […]).
(§1) Total RNA was extracted with RNeasy Mini kit according to the manufacturer's instructions (QIAGEN). One microgram of RNA was reverse-transcribed with Fermentas Maxima First Strand cDNA Synthesis Kit. Quantitative polymerase chain reaction (QPCR) mixtures were prepared as described (Applied Biosystems SYBR Green PCR Master Mix). QPCR reactions were performed by Applied Biosystems 7500 Fast Real-Time PCR System with technical duplicates and normalized to Porphobilinogen Deaminase (PBGD) in the same run. Error bars on all QPCR graphs represent standard error of mean from three independent biological replicates.
The protocol used is shown schematically in FIG. 1A, depicting the growth factors used and the duration of the treatment. For the first 36 hours, growth factors used were FLyB10 [FGF2 (20 ng/mL), BMP4 (10 ng/mL) and LY294002 (10 μM)] to induce primitive streak). The subsequent 3.5 days of differentiation specifies mesoderm subtypes. FLy [FGF2 (20 ng/mL) and LY294002 (10 μM)] for somitic mesoderm; FB50 [FGF2 (20 ng/mL) and BMP4 (50 ng/mL)] for lateral mesoderm.
QPCR analysis was performed for Brachyury, MEOX1 and FLK1 in hESCs grown according to the protocol depicted in FIG. 1A and harvested at day 5. The BMP4 gradient tested ranged from 0 ng/mL (Nog) to 100 ng/mL (B100). The bars in FIG. 2 represent the absence or presence of activin A (A) added at 10 ng/ml respectively. […] Therefore, absence of activin A promoted mesoderm formation.
We then evaluated the effect of 10 μM LY294002 (Ly) on mesoderm subtype specification. QPCR analysis of LMO2, CD31, PECAM1, NKX2.5, ISL1, MEOX1, TBX6, TCF15 and PAX1 was performed in hESCs grown for 36 h in FLyB10 and then for 3.5 additional days in F or FB50, with (RH bars) or without (LH bars) […]. […] On the other hand, the presence of Ly promoted the expressions of somitic markers—MEOX1 and TBX6. […] Again, the presence of 50 ng/ml BMP4 (B50) inhibited the expression of all paraxial markers and promoted the expression of lateral plate markers.

derived SMCs [1] = experiment: Calcium flux measurement with Fluo-4; conditions: carbachol 100 μM
Description: (§2) On culture dishes, SMCs were loaded with the calcium-sensitive fluorophore, Fluo-4 AM (2.5 μM; Molecular Probes). Cells were typsinised into single-cell suspension for calcium flux measurement using the CyAn ADP flow cytometer (Packman Coulter). Contraction was induced by treating the cells with carbachol (100 μM). Fluo-4 was excited by the 488 nm laser and the fluorescence emission was measured by the FL1 channel. Cells were analysed just before addition of carbachol, 1 minute and 3 minutes after addition. On the other hand, contraction images of adherent SMCs were acquired by an inverted microscope (Olympus) before and after 10 minutes of carbachol treatment.
Changes of calcium signalling in cells are indicative of their contractile properties in response to carbachol, a potent vasoconstrictor. The origin-specific SMCs were loaded with fluo-4, a calcium-sensitive dye, prior to the addition of carbachol (FIG. 13) and fluorescent emission from the fluo-4 measured over time (T) after the addition of carbachol to the origin-specific SMCs. Hela cells were used as negative control.
To assess SMC contractile potential, we initially performed immunostaining for vinculin and phalloidin staining for actin filaments, Well-developed focal adhesion complexes were detected in all three SMC subtypes. The cells were then preloaded with a calcium-sensitive dye, Fluo-4. Carbachol (100 μM) stimulated an increase in Fluo-4 fluorescence intensity in the derived SMCs within 1 min of treatment (FIG. 14), indicating increased intracellular calcium flux. After 2 min of treatment, Fluo-4 intensity decreased, approaching original basal levels by 5 min.

derived SMCs [2] = experiment: Contraction study; conditions: for Percentage of all derived SMCs that contracted: upon carbachol or angiotensin II treatment
Description: as §2
Over 50% and 20% of all derived SMCs contracted upon carbachol and angiotensin II treatments, respectively.

[3] = system: hPSC-derived SMCs and rat aortic SMCs; experiment: MMP and TIMP expression after IL-1β treatment (qRT-PCR); conditions: IL-1β 10 ng/ml
Description: as §1
Only NE-SMCs proliferated in response to TGF-β1 (FIGS. 24, 25). TGF-β1 may have enhanced cell proliferation by autocrine production of TGF-β2 and PDGFA. We investigated whether TGF-β1 stimulated greater auto-induction of TGF-β2 and PDGFA in SMCs of a neuroectoderm origin. […] Correspondingly, elevated TGFB2 and PDGFA protein levels were found in NE-SMC lysates after TGF-β1 treatment (FIG. 22). Taken together, the data on requirement for MKL2 and their unique proliferative and secretory responses validate the hypothesis that our different SMC subtypes are analogous to the distinct lineage-dependent SMC populations documented in vivo. […]

LM-SMC = experiment: Proliferation response by MTT assay; conditions: over 3 d; Ang II 1 μM, TGF-β1 5 ng/ml, serum 10%
From the text: (§3) To confirm that we had generated origin-specific SMC subtypes, we used cytokines known to induce unique responses in aortic SMCs of distinct origins. Angiotensin II (Ang II) promotes medial hyperplasia in the ascending aorta (neuroectoderm derivative) but not the descending aorta (mesoderm derivative), TGF-β1 also encourages greater cell proliferation in SMCs of neuroectoderm origin compared to those of mesodermal origin. […] Cell cycle analysis confirmed that Ang II, TGF-β1 or serum each increased the proportion of NE-SMCs in S and G2-M phases compared to vehicle control after 24 h (FIGS. 25A and 25B).

NE-SMC = experiment: Proliferation response by MTT assay; conditions: over 3 d; Ang II 1 μM, TGF-β1 5 ng/ml, serum 10%
From the text: as §3

PM-SMC = experiment: Proliferation response by MTT assay; conditions: over 3 d; Ang II 1 μM, TGF-β1 5 ng/ml, serum 10%
From the text: as §3

NE-SMCs [4] = experiment: Cell cycle analysis; conditions: after 24 h, compared to vehicle control
From the text: as §3

NE-SMCs [5] = experiment: Auto-induction of TGF-β2 and PDGFA (qRT-PCR, western blot)
Description: as §1
To obtain protein extracts, cells were washed twice with ice-cold PBS. Ice-cold RIPA buffer was then added to the cells. Cells were scraped off the culture dishes and transferred into a centrifuge tube. Suspension was agitated by an orbital shaker for 15 minutes to lyse the cells at 4° C. Lysate was centrifuged at 14,000 g in a precooled centrifuge for 15 minutes and the supernatant was kept frozen at −80. Protein concentrations were determined using Thermo Scientific BCA Protein Assay Kit. 20 μg total protein was separated by SDS-PAGE and on stacking gel (30% acrylamide, 1M Tris, 10% SDS, 10% APS, TEMED) then transferred to a nitrocellulose membrane. […]

[6] = 50 ng/ml BMP4 (B50), 36 h FLyB10 then 3.5 days

Molecule: O=c1cc(N2CCOCC2)oc2c(-c3ccccc3)cccc12 [LY294002, 2-morpholin-4-yl-8-phenylchromen-4-one, reference compound]
- Expression of lateral plate markers LMO2, PECAM1, NKX2-5, ISL1 (hESCs; 10 μM LY294002 in F or FB50, compared to no LY294002): had no effect or inhibited; also recorded: significantly downregulated
- Expression of paraxial markers MEOX1, TBX6, TCF15, PAX1 (hESCs; 10 μM LY294002 in the presence of 20 ng/ml FGF2 (F) alone, versus no LY294002): promote paraxial mesoderm patterning; also recorded: significantly promoted

Molecule: C[N+](C)(C)CCOC(N)=O [carbachol]
- Fluo-4 fluorescence intensity (intracellular calcium flux) (derived SMCs [1]): transient increase
- Time to increase in Fluo-4 fluorescence intensity (derived SMCs [1]): ≤ 1 min
- Fluo-4 fluorescence intensity (intracellular calcium flux) (derived SMCs [1]; listed as Carbachol): increase
- Change of cell surface area in contracting cells (derived SMCs [2]; 10 min of carbachol treatment, n=20): 10-20%
- Percentage of all derived SMCs that contracted (derived SMCs [2]): Over 50%

Molecule: IL-1β: an atherogenic cytokine
- Induction of Mmp9 relative to control in rat SMCs versus hPSC-derived SMCs ([3]; 6 h): ~100 fold
- MMP9 and TIMP1 expression levels ([3]; SMC subtypes and rat SMCs of distinct origins): differentially activated

Molecule: TGF-β1: homodimeric polypeptide which regulates proliferation and differentiation
- Proliferation (LM-SMC): did not
- Proliferation (NE-SMC): proliferated
- Proliferation (PM-SMC): did not
- Proportion of cells in S and G2-M phases (NE-SMCs [4]): increased
- TGFB2 and PDGFA expression (NE-SMCs [5]; 10 h of TGF-β1 (5 ng/ml), compared with vehicle control, only in NE-SMCs): significantly upregulated
- TGFB2 and PDGFA protein levels in lysates (NE-SMCs [5]; after TGF-β1 treatment, western blot): elevated

Molecule: angiotensin II: vasoconstrictor; promotes medial hyperplasia in the ascending aorta (DRVYIHPF; Angiotensin-2; UniProt P01019 25-32, looked up) [reference compound]
- Percentage of all derived SMCs that contracted (derived SMCs [2]): > 20%
- Proliferation (LM-SMC): did not
- Proliferation (NE-SMC): proliferated
- Proliferation (PM-SMC): did not
- Proportion of cells in S and G2-M phases (NE-SMCs [4]): increased

B1: BMP4: Bone Morphogenic Protein 4, TGFβ ligand stimulating SMAD1, SMAD5 and SMAD9 signalling (protein, UniProt P12644 293-408, looked up)
Bone morphogenetic protein 4: SPKHHSQRARKKNKNCRRHSLYVDFSDVGWNDWIVAPPGYQAFYCHGDCPFPLADHLNSTNHAIVQTLVNSVNSSIPKACCVPTELSAISMLYLDEYDKVVLKNYQEMVVEGCGCR
- Expression of all paraxial markers (hESCs; [6]): inhibited
- Expression of lateral plate markers (hESCs; [6]): promoted
- Expression of FLK1 (hESCs; hESCs harvested at day 5, BMP4 0 to 100 ng/mL): increased
- Expression of the lateral plate marker KDR (hESCs; day 5): promote the expression

B2: Noggin: a BMP antagonist (protein, UniProt Q13253 28-232, looked up)
Noggin: QHYLHIRPAPSDNLPLVDLIEHPDPIFDPKEKDLNETLLRSLLGGHYDPGFMATSPPEDRPGGGGGAAGGAEDLAELDQLLRQRPSGAMPSEIKGLEFSEGLAQGKKQRLSKKLRRKLQMWLWSQTFCPVLYAWNDLGSRFWPRYVKVGSCFSKRSCSVPEGMVCKPSKSVHLTVLRWRCQRRGGQRCGWIPIQYPIISECKCSC
- Expression of the lateral plate marker KDR (hESCs; day 5): same effect as B0

B3: activin A: dimeric polypeptide stimulating the Activin/Nodal pathway (protein, UniProt P08476 311-426, looked up)
Inhibin beta A chain: GLECDGKVNICCKKQFFVSFKDIGWNDWIIAPSGYHANYCEGECPSHIAGTSGSSLSFHSTVINHYRMRGHSPFANLKSCCVPTKLRPMSMLYYDDGQNIIKKDIQNMIVEECGCS
modifications: Inhibin beta A chain
- Expression of Brachyury (T), MEOX1 and FLK1 (hESCs; absence versus presence of activin A at 10 ng/ml, day 5): upregulated
- Requirement for mesoderm patterning (hESCs; hESCs harvested at day 5): not required
